Here are results for 15 molecules from ChEMBL document CHEMBL5223104, “Discovery of triazenyl triazoles as Nav1.1 channel blockers for treatment of epilepsy” (Bioorg Med Chem Lett, 2022).

Series [1] addresses Sodium channel protein type 1 subunit alpha (Homo sapiens) (UniProt P35498). Kind of series: Modulator activity at human Nav1.1 expressed in human Flp-In-T-REx-293 cells assessed as change in half inactivation potential at 100 uM by whole cell patch clamp electrophysiology assay. Type of series: cell-based.
For series [2] the target is unchanged. Kind of series: Modulator activity at human Nav1.1 expressed in human Flp-In-T-REx-293 cells assessed as half activation potential at 100 uM measured at holding potential of -120 mV by whole cell patch clamp electrophysiology assay. Type of series: cell-based. A general note: The patch-clamp technique gives a direct electrical read-out from membranes.
Series [3] shares this target. Kind of series: Modulator activity at human Nav1.1 expressed in human Flp-In-T-REx-293 cells assessed as half inactivation potential at 100 uM by whole cell patch clamp electrophysiology assay. The series is classed as cell-based.
Series [4] shares this target. The series is described as follows: Modulator activity at human Nav1.1 expressed in human Flp-In-T-REx-293 cells assessed as change in half activation potential at 100 uM measured at holding potential of -120 mV by whole cell patch clamp electrophysiology assay. Type of series: cell-based.
Series [5] concerns Mus musculus. Kind of series: Anti-seizure activity against PTZ-induced ICR mouse seizure model assessed as increase in average latency to stage 2 at 50 mg/kg, IG incubated for 1 hrs followed by PTZ stimulation and measured <30 mins. The series is classed as functional, organism-based. The settings on record: time < 1.5 hrs.
Series [6] concerns Mus musculus. Kind of series: Anti-seizure activity against PTZ-induced ICR mouse seizure model assessed as increase in survival rate at 50 mg/kg, IG incubated for 1 hrs followed by PTZ stimulation and measured <30 mins. The series is classed as functional, organism-based. The settings on record: time < 1.5 hrs.
In series [7] the test system is Mus musculus. Kind of series: Anti-seizure activity against PTZ-induced ICR mouse seizure model assessed as decrease in seizure severity stage at 50 mg/kg, IG incubated for 1 hrs followed by PTZ stimulation and measured <30 mins. The series is classed as functional, organism-based. The settings on record: time < 1.5 hrs.
The subject of series [8] is Mus musculus. The series is described as follows: Anti-seizure activity against PTZ-induced ICR mouse seizure model assessed as increase in average latency to stage 6 at 50 mg/kg, IG incubated for 1 hrs followed by PTZ stimulation and measured <30 mins. The series is classed as functional, organism-based. As to conditions: time < 1.5 hrs.
The subject of series [9] is Mus musculus. Kind of series: Anti-seizure activity against ICR mouse […] assessed as decrease in seizure stage at 50 mg/kg, IG incubated for 1 hrs followed by PTZ stimulation. The series is classed as functional, organism-based. In general terms: Protection in the maximal electroshock model is a classic sign of anticonvulsant action.
A short description of series [10]: Apparent volume of distribution during terminal phase in Sprague-Dawley rat at 10 mg/kg, iv. The series is classed as ADME, organism-based. The settings on record: in vivo.
Series [11] can be described thus: AUClast in Sprague-Dawley rat plasma at 50 mg/kg, po. The series is classed as ADME, organism-based. More on the design: dose 50 mg/kg, route po. The settings on record: in vivo.
Series [12] is described as follows: AUClast in Sprague-Dawley rat plasma at 10 mg/kg, iv. The series is classed as ADME, organism-based. The settings on record: in vivo. Details: dose 10 mg/kg, route iv.
The subject of series [13] is Mus musculus. The series is described as follows: Anti-seizure activity against ICR mouse […] assessed as decrease in tonic clonic seizure duration at 50 mg/kg, IG incubated for 1 hrs followed by PTZ stimulation. Type of series: functional, organism-based.
Series [14] is described as follows: Apparent clearance during terminal phase in Sprague-Dawley rat at 10 mg/kg, iv. Type of series: ADME, organism-based. The settings on record: in vivo.
In series [15] the test system is Mus musculus. The series is described as follows: Anti-seizure activity against ICR mouse […] assessed as increase in survival rate at 50 mg/kg, IG incubated for 1 hrs followed by PTZ stimulation. The series is classed as functional, organism-based.
Series [16] in a line: Apparent volume of distribution during terminal phase in Sprague-Dawley rat at 50 mg/kg, po. The settings on record: in vivo, read-out: Vz/F. The series is classed as ADME, organism-based.
Series [17] concerns Mus musculus. Kind of series: Anti-seizure activity against ICR mouse […] assessed as increase in latency duration in stage 3 at 50 mg/kg, IG incubated for 1 hrs followed by PTZ stimulation. Type of series: functional, organism-based.
Series [18] in a line: Tmax in Sprague-Dawley rat at 50 mg/kg, po. The series is classed as ADME, organism-based. The settings on record: in vivo.
Series [19] can be described thus: Cmax in Sprague-Dawley rat at 50 mg/kg, po. Type of series: ADME, organism-based. Details: dose 50 mg/kg, route po. The settings on record: in vivo.
The nature of series [20]: Tmax in Sprague-Dawley rat at 10 mg/kg, iv. Type of series: ADME, organism-based. As to conditions: in vivo.
A short description of series [21]: Half life in Sprague-Dawley rat at 10 mg/kg, iv. The series is classed as ADME, organism-based. As to conditions: in vivo.
Series [22] can be described thus: Half life in Sprague-Dawley rat at 50 mg/kg, po. Type of series: ADME, organism-based. The settings on record: in vivo.
A short description of series [23]: Apparent clearance during terminal phase in Sprague-Dawley rat at 50 mg/kg, po. Type of series: ADME, organism-based. The settings on record: in vivo.
Series [24] in a line: Oral bioavailability in Sprague-Dawley rat at 50 mg/kg. Type of series: ADME, organism-based. The settings on record: in vivo.
The nature of series [25]: Cmax in Sprague-Dawley rat at 10 mg/kg, iv. The settings on record: in vivo. Type of series: ADME, organism-based. More on the design: dose 10 mg/kg, route iv.

What is called Tmax is the time at which the peak concentration occurs. As usually defined, the Cmax is the peak of the concentration-time curve. Broadly, the bioavailability is dose-corrected exposure relative to a reference, in per cent. Low readings indicate little systemic uptake, high ones much systemic uptake.

SMILES strings stand for the structures. Active and inactive are the calls of the source. No cut-off for these calls is given here.

With `CNC(=O)c1nnn(Cc2c(F)cccc2F)c1/N=N/N(C)C`, the results for the delta(V1/2) in series [1] and in series [4] were -6.54 mV and -4.56 mV, respectively. Moreover, the V1/2 in [2] is -39.5 mV; in [3], -69.6 mV.

In the case of `CN(C)/N=N/c1c(C(=O)Nc2ccccc2)nnn1Cc1c(F)cccc1F`, the figures for the delta(V1/2) in series [1] and in [4] were -5.55 mV and -1.64 mV, respectively. Further, the V1/2 was -36.5 mV in [2] and -73 mV in series [3].

For the molecule `CN(C)/N=N/c1c(C(N)=O)nnn1Cc1ccccc1Cl`, the results for the delta(V1/2) in [1] and in series [4] were -3.13 mV and -1.7 mV, respectively. The V1/2 in series [2] is -42.7 mV; in series [3], -62.9 mV.

On to `CN(C)/N=N/c1c(C(=O)NCc2ccccc2)nnn1Cc1c(F)cccc1F`, for which the figures for the delta(V1/2) in series [1] and in series [4] were -11.3 mV and 1.95 mV, respectively. Further, the result in the series with Mus musculus [5], with Mus musculus [6], in the series with Mus musculus [7] and with Mus musculus [8] was Active. The V1/2 is -36.2 mV in series [2] and -78.8 mV in series [3]. For the same molecule, the result in the series with Mus musculus [9] was inactive.

With `CN(C)/N=N/c1c(C(N)=O)nnn1Cc1ccc(F)cc1`, the results for the delta(V1/2) in [1] and in [4] were -4 mV and -0.99 mV, respectively. Further, the results for the V1/2 in series [2] and in series [3] were -39 mV and -62 mV, respectively.

Consider `NC(=O)c1cn(Cc2c(F)cccc2F)nn1`, for which the results for the delta(V1/2) in series [1] and in series [4] were -7.01 mV and -7.39 mV, respectively. For the same molecule, the V1/2 in [2] was -41.3 mV; in series [3] it was -66.7 mV.

Turning to `CN(C)/N=N/c1c(C(N)=O)nnn1-c1c(F)cccc1F`, the delta(V1/2) in [1] was -4.24 mV; in series [4] it was -1.09 mV. For the same molecule, the V1/2 in [2] was -35.6 mV; in [3] it was -64.3 mV.

Consider `COC(=O)CCCNC(=O)c1nnn(Cc2c(F)cccc2F)c1/N=N/N(C)C`, for which the values for the delta(V1/2) in series [1] and in series [4] were -4.72 mV and -1.56 mV, respectively. The V1/2 in series [2] is -35.7 mV; in [3], -71.3 mV.

On to `CN(C)/N=N/c1c(C(=O)NC2CC2)nnn1Cc1c(F)cccc1F`, for which the delta(V1/2) in series [1] is -3.87 mV; in series [4], -2.85 mV. In addition, the V1/2 is -32.4 mV in [2] and -64.2 mV in [3].

For `CN(C)/N=N/c1c(C(N)=O)nnn1Cc1ccc(F)cc1F`, the delta(V1/2) in series [1] was -4.36 mV; in series [4], -4.15 mV. The results for the V1/2 in series [2] and in series [3] were -36.5 mV and -63.1 mV, respectively.

Regarding `CN(C)/N=N/c1c(C(N)=O)nnn1Cc1c(F)cccc1F`, in [10], the Vz/F is 0.93 L/kg. The values for the delta(V1/2) in [1] and in series [4] were -10.1 mV and -1.81 mV, respectively. The AUClast in series [11] was 5460 ng·h/mL; in series [12], 3190 ng·h/mL. Further, the result in the series with Mus musculus [5], with Mus musculus [6], in the series on Mus musculus [13], in the series on Mus musculus [15], in the series with Mus musculus [7] and with Mus musculus [17] was Active. Besides, the outcome with Mus musculus [8] and with Mus musculus [9] was Active. The V1/2 is -46.1 mV in series [2] and -69.8 mV in series [3]. Further, the CLz/F in [14] came out at 54.2 mL/min/kg; in [23] it was 169 mL/min/kg. In [16], the Vd/F is 13.6 L/kg. For the same molecule, the time to peak (Tmax) in [18] and in series [20] was 10.2 min in each case. Moreover, the results for the Cmax in [19] and in series [25] were 4496.74 ng/mL and 5203.99 ng/mL, respectively. In addition, the values for the t1/2 in [21] and in series [22] were 11.4 min and 63 min, respectively. This molecule registered a bioavailability in series [24] of 34.3%.

As to `CN(C)/N=N/c1c(C(N)=O)nnn1Cc1ccccc1`, the delta(V1/2) is -3.79 mV in [1] and -1.5 mV in series [4]. The V1/2 in [2] is -43.2 mV; in [3] it was -64.2 mV.

As to `CN(C)/N=N/c1c(C(N)=O)nnn1CCc1c(F)cccc1F`, the delta(V1/2) in series [1] is -0.74 mV; in series [4] it was -2.65 mV. The V1/2 in series [2] was -31.9 mV; in [3], -61.5 mV.

Consider `CN(C)/N=N/c1c(C(N)=O)nnn1Cc1ccccc1F`, for which the delta(V1/2) in [1] was -4.73 mV; in series [4], -3.11 mV. In addition, the V1/2 was -30.9 mV in series [2] and -66.6 mV in [3].

`Cc1ccc(Cn2nnc(C(N)=O)c2/N=N/N(C)C)cc1`: the delta(V1/2) in [1] was -3.93 mV; in series [4] it was -1.05 mV. For the same molecule, the V1/2 in [2] is -45.4 mV; in series [3], -66.2 mV.
